The values that follow are results of earlier work, collected in publication PMC12333940, “A prometabolite strategy inhibits cardiometabolic disease in an ApoE^–/– murine model of atherosclerosis” (JCI Insight, 2025).

On the set-up of this data set: method as in printed. The note with it: oral administration of exogenous butyrate; background statement, ref not given; cited from earlier work.

Take `CCCC(=O)O` [butyrate, Butyrate]: the “absorption into circulation, plasma concentration” value is 3 to 4 mM.
